Data: patent US20100119599A1 (ARCHER PHARMACEUTICALS, INC., priority 2006, published 2010)
Where a name gives a salt, the structure may show the parent alone. Read-outs that look alike come from different tables or passages of the source.

Assays:
Aβ1-40 = experiment: Measurement of Aβ1-40 in culture medium of 7W WT APP751 CHO cells by ELISA; assay type: cell-based, Chinese hamster; settings: for Aβ1-40 (% of control): CHO cells that overexpress APP751, zero = below the detection limit of the assay; for activity at 5 µM: Cricetulus griseus, 5 μM test compound, CHO cells stably transfected with human APP751, culture medium, ELISA, control DMSO;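 for all read-outs here: 5 µM test compound but RI-coded compounds at 10 µM for 24 hours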
Aβ1-42 = experiment: Measurement of Aβ1-42 in culture medium of 7W WT APP751 CHO cells by ELISA; assay type: cell-based, Chinese hamster; settings: for Aβ1-42 (% of control): CHO cells that overexpress APP751, zero = below the detection limit of the assay; for activity at 5 µM: Cricetulus griseus, 5 μM test compound, CHO cells stably transfected with human APP751, culture medium, ELISA, control DMSO;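 for Aβ1-42 (% of control): 5 µM test compound but RI-coded compounds at 10 µM for 24 hours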
[1] = Table 1, 0 = no detectable amount
[2] = Table 1, 0 = no detectable amount, read-out: Aβ1-42 (% of control)

Structure (SMILES)	Aβ1-40 (% of control) (Aβ1-40)	Aβ1-42 (% of control) (Aβ1-42)	activity at 5 µM (Aβ1-40; [1])	activity at 5 µM (Aβ1-42; [2])	also measured
CCCCc1ccc(NC(=O)CSC2=C(C#N)C(c3ccsc3)C(C(=O)Nc3ccccc3)=C(C)N2)cc1 (stereo not drawn) [RI_65]	51.7 % of control	38.1 % of control			
CC1=C(C(=O)OCCc2ccccc2)C(c2ccccc2)C2=C(CC(C)(C)CC2=O)N1 (stereo not drawn) [ST015054, 2-phenylethyl 2,7,7-trimethyl-5-oxo-4-phenyl-1,4,6,7,8-pentahydroquinoline-3-carboxylate]			29.9%	44.2%	
CC1=C(C(=O)OCc2ccccc2)C(c2ccc(N(C)C)cc2)C2=C(CCCC2=O)N1 (stereo not drawn) [ST013212, phenylmethyl 4-[4-(dimethylamino)phenyl]-2-methyl-5-oxo-1,4,6,7,8-pentahydroquinoline-3-carboxylate]			50.8%	93.7%	
COCCOC(=O)C1=C(C)NC2=C(C(=O)CC(c3ccc(Cl)cc3)C2)C1c1ccc(Br)cc1 (stereo not drawn) [ST016960, 2-methoxyethyl 4-(4-bromophenyl)-7-(4-chlorophenyl)-2-methyl-5-oxo-1,4,6,7,8-pentahydroquinoline-3-carboxylate]			51.5%	76.4%	
CC1=C(C(=O)OCCc2ccccc2)C(c2cccc(Cl)c2Cl)C2=C(CCCC2=O)N1 (stereo not drawn) [ST015062, 2-phenylethyl 4-(2,3-dichlorophenyl)-2-methyl-5-oxo-1,4,6,7,8-pentahydroquinoline-3-carboxylate]			30.6%	20.8%	
COC(=O)C1=CNC=C(C(=O)OC)C1c1cccc(OC)c1 [ST052261, methyl 5-(methoxycarbonyl)-4-(3-methoxyphenyl)-1,4-dihydropyridine-3-carboxylate]	38.04 % of control	57.24 % of control			
CC1=C(C(=O)Nc2ccccc2)C(c2ccncc2)C(C#N)=C(S)N1 (stereo not drawn) [ST007526, (5-cyano-2-methyl-4-(4-pyridyl)-6-sulfanyl(3-1,4-dihydropyridyl))-N-benzamide, 4-methylmorpholine salt]	72.5 % of control	81.23 % of control			
CC1=C(C(=O)OCC(C)C)C(c2cccc(Cl)c2)C2=C(CC(c3ccccc3)CC2=O)N1 (stereo not drawn) [ST016969, 2-methylpropyl 4-(3-chlorophenyl)-2-methyl-5-oxo-7-phenyl-1,4,6,7,8-pentahydroquinoline-3-carboxylate]			30.3%	60.2%	
COC(=O)C1=C(C)NC2=C(C(=O)CC(C)(C)C2)C1c1cccnc1 (stereo not drawn) [ST013059, methyl 2,7,7-trimethyl-5-oxo-4-(3-pyridyl)-1,4,6,7,8-pentahydroquinoline-3-carboxylate]			26.7%	76.1%	
CC1=C(C(=O)OCc2ccccc2)C(c2ccccc2C(F)(F)F)C2=C(CC(C)(C)CC2=O)N1 (stereo not drawn) [ST014881, phenylmethyl 2,7,7-trimethyl-5-oxo-4-[2-(trifluoromethyl)phenyl]-1,4,6,7,8-pentahydroquinoline-3-carboxylate]			0%	49.9%	
CCCOc1ccccc1C1C(C(=O)OCC(C)C)=C(C)NC2=C1C(=O)CC(c1ccc(Cl)cc1)C2 (stereo not drawn) [ST017026, 2-methylpropyl 7-(4-chlorophenyl)-2-methyl-5-oxo-4-(2-propoxyphenyl)-1,4,6,7,8-pentahydroquinoline-3-carboxylate]			40.6%	80.6%	
CC1=C(C(=O)Nc2ccc(Cl)cc2)C(c2ccccc2C)C(C#N)=C(SCC(=O)Nc2cccc(C)c2)N1 (stereo not drawn) [RI_31]	53.9 % of control	73.3 % of control			
CCCCOC(=O)C1=C(C)NC2=C(C(=O)CCC2)C1c1cccc(Cl)c1 (stereo not drawn) [ST013428, butyl 4-(3-chlorophenyl)-2-methyl-5-oxo-1,4,6,7,8-pentahydroquinoline-3-carboxylate]			25.1%	40.9%	
COc1ccc(C2C(C(=O)OC3CCCCC3)=C(C)NC3=C2C(=O)CCC3)cc1Br (stereo not drawn) [ST013429, cyclohexyl 4-(3-bromo-4-methoxyphenyl)-2-methyl-5-oxo-1,4,6,7,8-pentahydroquinoline-3-carboxylate]			31.9%	45.4%	
CC1=C(C(=O)Nc2ccccc2)C(c2ccsc2)C(C#N)=C(SCC(=O)Nc2ccc(C)c(Cl)c2)N1 (stereo not drawn) [RI_67]	42.6 % of control	51.8 % of control			
COC(=O)C1=CN(C2CC2)C=C(C(=O)OC)C1c1cccc(F)c1 [ST038735, methyl 1-cyclopropyl-4-(3-fluorophenyl)-5-(methoxycarbonyl)-1,4-dihydropyridine-3-carboxylate]	65.36 % of control	98.52 % of control			
CC1=C(C(=O)OCCOc2ccccc2)C(c2ccc(C)s2)C2=C(CCCC2=O)N1 (stereo not drawn) [ST052280, 2-phenoxyethyl 2-methyl-4-(5-methyl(2-thienyl))-5-oxo-1,4,6,7,8-pentahydroquinoline-3-carboxylate]			73.6%	37.7%	

Structure (SMILES)	Aβ1-40 (% of control) (Aβ1-40)	Aβ1-42 (% of control) (Aβ1-42)	activity at 5 µM (Aβ1-40; [1])	activity at 5 µM (Aβ1-42; [2])	also measured
COCCOC(=O)C1=C(C)NC2=C(C(=O)CCC2)C1c1cc(OC)c(OC)cc1Br (stereo not drawn) [ST052462, 2-methoxyethyl 4-(2-bromo-4,5-dimethoxyphenyl)-2-methyl-5-oxo-1,4,6,7,8-pentahydroquinoline-3-carboxylate]			61.8%	94.3%	
CC1=C(C(=O)OCC(C)C)C(c2ccc(Cl)cc2)C2=C(CC(c3ccc(Cl)cc3)CC2=O)N1 (stereo not drawn) [ST017070, 2-methylpropyl 4,7-bis(4-chlorophenyl)-2-methyl-5-oxo-1,4,6,7,8-pentahydroquinoline-3-carboxylate]			55.4%	89.1%	
COc1ccc(C2C(C(=O)OC3CCCC3)=C(C)NC3=C2C(=O)CC(C)(C)C3)c(OC)c1 (stereo not drawn) [ST013086, cyclopentyl 4-(2,4-dimethoxyphenyl)-2,7,7-trimethyl-5-oxo-1,4,6,7,8-pentahydroquinoline-3-carboxylate]			0%	73.7%	
CCOc1ccc(C2C(C(=O)OC(C)C)=C(C)NC3=C2C(=O)CCC3)cc1OC (stereo not drawn) [ST013323, methylethyl 4-(4-ethoxy-3-methoxyphenyl)-2-methyl-5-oxo-1,4,6,7,8-pentahydroquinoline-3-carboxylate]			56.7%	80.1%	
COCCOC(=O)C1=C(C)NC2=C(C(=O)CC(C)(C)C2)C1c1ccc(C(C)C)cc1 (stereo not drawn) [ST052313, 2-methoxyethyl 2,7,7-trimethyl-4-[4-(methylethyl)phenyl]-5-oxo-1,4,6,7,8-pentahydroquinoline-3-carboxylate]			26.3%	23.4%	
CC1=C(C(=O)OCc2ccccc2)C(c2coc3ccc(Cl)cc3c2=O)C2=C(CCCC2=O)N1 (stereo not drawn) [ST052468, phenylmethyl 4-(6-chloro-4-oxochromen-3-yl)-2-methyl-5-oxo-1,4,6,7,8-pentahydroquinoline-3-carboxylate]			43.9%	31.9%	
CC1=C(C(=O)OCCc2ccccc2)C(c2ccc(Cl)cc2Cl)C2=C(CCCC2=O)N1 (stereo not drawn) [ST014884, 2-phenylethyl 4-(2,4-dichlorophenyl)-2-methyl-5-oxo-1,4,6,7,8-pentahydroquinoline-3-carboxylate]			62%	52.8%	
N#CC1=C(N)Nc2c(c(=O)oc3ccccc23)C1c1ccc(Br)cc1 (stereo not drawn) [ST014147, 2-amino-4-(4-bromophenyl)-5-oxo-1,4-dihydrochromeno[4,3-b]pyridine-3-carbonitrile]	82.09 % of control	68.55 % of control			
COC(=O)C1=C(C)NC2=C(C(=O)CC(C)(C)C2)C1c1ccc(OCc2ccc(Cl)cc2)c(OC)c1 (stereo not drawn) [ST028595, methyl 4-{4-[(4-chlorophenyl)methoxy]-3-methoxyphenyl}-2,7,7-trimethyl-5-oxo-1,4,6,7,8-pentahydroquinoline-3-carboxylate]			34.4%	98.9%	
CCc1cccc(NC(=O)CSC2=C(C#N)C(c3cc(Br)cs3)C(C(=O)Nc3ccccc3)=C(C)N2)c1 (stereo not drawn) [RI_80]	64.37 % of control	54.3 % of control			
CC1=C(C(=O)Nc2ccc(Cl)cc2)C(c2ccsc2)C(C#N)=C(SCC(=O)Nc2cccc(Cl)c2C)N1 (stereo not drawn) [RI_53]	56 % of control	99.2 % of control			
CC1=C(C(=O)OCc2ccccc2)C(c2ccc([N+](=O)[O-])cc2)C2=C(CC(C)(C)CC2=O)N1 (stereo not drawn) [ST013214, phenylmethyl 2,7,7-trimethyl-4-(4-nitrophenyl)-5-oxo-1,4,6,7,8-pentahydroquinoline-3-carboxylate]			0%	4.36%	
CCC(C)c1ccccc1NC(=O)CSC1=C(C#N)C(c2ccsc2)C(C(=O)Nc2ccccc2)=C(C)N1 (stereo not drawn) [RI_68]	74.6 % of control	100 % of control			
N[C@@H](Cn1ccc(=O)c(O)c1)C(=O)O [ST056312, (2S)-2-amino-3-(3-hydroxy-4-oxohydropyridyl)propanoic acid]					activity at 5 µM (Aβ1-40; Table 3): 70.7%; activity at 5 µM (Aβ1-42; Table 3, read-out: Aβ-42 (% of control)): 37.1%
CCOC(=O)C1=C(N)n2c(s/c(=C\c3ccccc3OC)c2=O)=C(S(=O)(=O)c2ccccc2)C1c1ccccc1OC (stereo not drawn) [ST011325, ethyl 5-amino-7-(2-methoxyphenyl)-2-[(2-methoxyphenyl)methylene[-3-oxo-8-(phenylsulfonyl)-4,7-dihydro-1,3-thiazolidino[3,2-a]pyridine-6-carboxylate]	62.35 % of control	99 % of control			
CC1=C(C(=O)OCCOc2ccccc2)C(c2ccncc2)C2=C(CC(c3ccccc3)CC2=O)N1 (stereo not drawn) [ST017084, 2-phenoxyethyl 2-methyl-5-oxo-7-phenyl-4-(4-pyridyl)-1,4,6,7,8-pentahydroquinoline-3-carboxylate]			54.3%	84.7%	
